Several values for one entry are separate records, joined by “and”; a condition that tells them apart may be missing. Equal values may be shown once. Entries after “also recorded” stand apart in the source; their conditions may differ. One block for each compound: values may come before it.
Key:
[1] = tested on: CoCl2 induced CNV; assay: Eye specific angiogenesis ELISA (eZ-CNV ELISA) on isolated eyes; assay type: in vivo, zebrafish; conditions: co-treatment with 0.1 mg/ml CoCl2 for 4 days, 4 eyes/well
Description: Calculation of Drug Effects. To reduce the variability contributed by substrate and to compare results from different assays performed on different days, drug effects were normalized to % inhibition on EC proliferation. Chemiluminescent signal (CU) in each well (containing 4 eyes) was measured and used to calculate drug effect. […] In addition, to estimate non-specific background signal, 24 C were processed without antibody incubation; the mean value of which was subtracted from each CU measurement. Mean CU of D was used as 100% control. Drug effect was calculated following formula (a). %Inhibition=(1−(CU(drug treated)/CU(control)))×100% (a)
Based on the visual assessment above, co-treatment chosen as the treatment method to investigate the effects of the anti-angiogenic drugs Celebrex and Genistein in CoCl2 induced CNV in zebrafish using the eZ-CNV™ ELISA. Drug effects were calculated using the method described in Materials and Methods, infra. […] Based on the dose response curve, the optimal concentration for Celebrex was 20 μM and for Genistein was 0.0001 μM.
Methods for Dissociating Eyes from Whole Zebrafish. Zebrafish were processed for whole mount immunochemical staining with either Alexa 488 or HRP conjugated Phy-V following standard procedures. After extensive washing, stained zebrafish were incubated with 150 U/ml collagenase at 37° C. for 45 minutes; eyes were then dissociated from the whole zebrafish by gentle pipetting.
Eye Specific Angiogenesis ELISA (eZ-CNV™ ELISA). Isolated eyes of whole mount Phy-V-HRP stained zebrafish were placed in 96-well microplates, 4 eyes/well; 150 μl/well PS-atto (Lumigen, Southfield, Mich.), chemiluminescence HRP substrate, was added and the chemiluminescence signal from the enzymatic product was detected by Synergy HT microplate reader (BioTeK Instruments, Inc., Winooski, Vt.).

[2] = tested on: CoCl2 induced CNV; assay: Effect of anti-angiogenic drugs on CoCl2 induced CNV, visual assessment of Phy-V stained whole zebrafish; assay type: in vivo; conditions: for Mean ± SE (% CNV) / % CNV (per experiment) / CNV zebrafish (number per experiment): co-treatment with 0.1 mg/ml CoCl2, 24 hpf to 5 dpf; for abnormal neovascularization in the choroidal vessel plexus: co-treatment with CoCl2, 5 dpf zebrafish
Description: 24 hpf zebrafish were treated with 0.1 mg/ml CoCl2 continuously for 4 days, and various concentrations of Celebrex or Genistein were incubated with the zebrafish. At the 5 dpf stage, zebrafish were fixed and stained with zebrafish angiogenic-vessel-specific antibody, Phy-V. Several treatment strategies were assessed: (1) pre-treatment (high concentration of drug added for 4 hours and withdrawn before CoCl2 induction); (2) co-treatment (drugs were co-treated with CoCl2); and (3) post-treatment (drugs were added 24 hours after CoCl2).
The drug effects on CNV zebrafish were assessed visually using microscopic examination of Phy-V stained whole zebrafish. % CNV inhibition was calculated by dividing the total number of CNV zebrafish by the total number of zebrafish per experiment (Tables II and III). The percentage of CNV zebrafish was lowest after co-treatment with Celebrex.
Celebrex or Genistein Co-Treatment. Celebrex and Genistein dissolved in DMSO were added directly to fish water, the final concentration of DMSO for Celebrex and Genistein was 0.8%. For pre-treatment, 24 hpf zebrafish were incubated with high concentrations of each drug at 28° C. for 4 hours; the drugs were washed off and zebrafish were treated with 0.1 mg/ml CoCl2. For co-treatment, each drug was added simultaneously with 0.1 mg/ml CoCl2. For post-treatment, each drug was added 24 hours after CoCl2 addition. After drug treatment, zebrafish were washed and processed for whole mount immunochemical staining
Whole Mount Immunofluorescence Staining. Zebrafish were fixed by Dent's fixative (DMSO/methanol=⅓) and processed for whole mount immunochemical staining following standard procedures (Westerfield, 1993, supra). Alexa 488 conjugated Phy-V antibody (Phylonix), which specifically labels activated endothelial cells, was used to stain zebrafish, and followed by examination by fluorescence microscopy.

[3] = tested on: zebrafish eye (retina); assay type: in vivo
[4] = tested on: HIF-1α; set-up: key: ↑: Up arrows indicate up-regulation; ↓: down arrows indicate down-regulation; —: horizontal line indicates no change; conditions: zebrafish, in vivo
[5] = tested on: PEDF; set-up: key: ↑: Up arrows indicate up-regulation; ↓: down arrows indicate down-regulation; —: horizontal line indicates no change; conditions: zebrafish, in vivo
[6] = tested on: IGF; set-up: key: ↑: Up arrows indicate up-regulation; ↓: down arrows indicate down-regulation; —: horizontal line indicates no change; conditions: zebrafish, in vivo
[7] = tested on: VEGF; set-up: key to VEGF expression (RT-PCR): ↑: Up arrows indicate up-regulation; ↓: down arrows indicate down-regulation; —: horizontal line indicates no change; conditions: zebrafish, in vivo
[8] = tested on: zebrafish; conditions: in vivo
[9] = tested on: choroidal neovascularization (CNV) in zebrafish; assay: Hypoxia-induced choroidal neovascularization (CNV) model, Phy-V staining of treated zebrafish; assay type: in vivo
[10] = tested on: PGK; set-up: key: ↑: Up arrows indicate up-regulation; ↓: down arrows indicate down-regulation; —: horizontal line indicates no change; conditions: zebrafish, in vivo
[11] = CoCl2 + 20 μM Celebrex-treated 5 dpf zebrafish

effect on eye development [3, 11]: did not delay eye development
Structure (SMILES): Cc1ccc(-c2cc(C(F)(F)F)nn2-c2ccc(S(N)(=O)=O)cc2)cc1 [Celebrex]
dose response in eZ-CNV ELISA [1]: typical dose response curve
optimal concentration based on the dose response curve [1]: 20 µM
Mean ± SE (% CNV) ([2]; Celebrex 10 μM): 37.0 ± 16.1%
Mean ± SE (% CNV) ([2]; Celebrex 15 μM): 22.1 ± 12.4%
% CNV (per experiment) ([2]; Celebrex 20 μM): 0% and 10.0%
Mean ± SE (% CNV) ([2]; Celebrex 20 μM): 3.3 ± 3.3%
abnormal neovascularization in the choroidal vessel plexus [2]: prevented abnormal neovascularization
inhibition of CoCl2 induced CNV after post-treatment ([2]; post-treatment, drug added 24 hours after CoCl2): limited inhibition
CNV after pre-treatment ([2]; pre-treatment, high concentration of drug 4 hours, withdrawn before CoCl2 induction): low percentage of CNV zebrafish, however, the CNV defects were severe
retinal structure [3, 11]: normal 5 layer structure with no vessels present in the retina

Structure (SMILES): [Cl-].[Cl-].[Co+2] [CoCl2]
HIF-1α expression (RT-PCR) [4]: ↑ and ↓ and —
PEDF expression (RT-PCR) [5]: —
IGF expression (RT-PCR) [6]: —
VEGF expression (RT-PCR) [7]: — and ↑
VEGF expression (RT-PCR), in words [7]: Up-regulation
lethality [8]: instantaneous death
zebrafish dying [8]: 100%
frequency or severity of CNV ([9]; zebrafish, in vivo): did not increase the frequency or severity of CNV
number of treated zebrafish exhibiting CNV specific phenotype ([9]; zebrafish, in vivo): 64
treated zebrafish exhibiting CNV specific phenotype ([9]; zebrafish, in vivo): 63.6±11.1%
vessel growth ([9]; zebrafish, in vivo): did not stimulate vessel growth
PGK expression (RT-PCR) [10]: —
retinal structure / vessels in the retina ([3]; zebrafish, in vivo): abnormal vessels formed in the retina; also recorded: abnormal retinal structure

Structure (SMILES): O=c1c(-c2ccc(O)cc2)coc2cc(O)cc(O)c12 [Genistein]
dose response in eZ-CNV ELISA [1]: only showed preventative effects at a low concentration
optimal concentration based on the dose response curve [1]: 0.0001 µM
Mean ± SE (% CNV) ([2]; Genistein 0.0001 μM): 20.8%
% CNV (per experiment) ([2]; Genistein 0.001 μM): 36.8% and 39.1%
CNV zebrafish (number per experiment) ([2]; Genistein 0.001 μM): 7 and 9
Mean ± SE (% CNV) ([2]; Genistein 0.001 μM): 38.0%
% CNV (per experiment) ([2]; Genistein 0.01 μM): 23.5%
CNV zebrafish (number per experiment) ([2]; Genistein 0.01 μM): 4
Mean ± SE (% CNV) ([2]; Genistein 0.01 μM): 23.5%
abnormal neovascularization in the choroidal vessel plexus [2]: prevented abnormal neovascularization

Structure (SMILES): CC(C)(S)[C@@H](N)C(=O)O [Penicillamine]
CNV ([9]; 0.01 μM Penicillamine from 24 hpf, at 5 dpf): CNV was observed
angiogenesis ([9]; 0.01 μM Penicillamine treatment at the 24 hpf stage): stimulated angiogenesis throughout the zebrafish
zebrafish developing CNV compared with CoCl2 treatment ([9]; Penicillamine treatment): Fewer zebrafish developed CNV

— patent US8741592B2, “Methods of screening an agent for an activity in an isolated eye of a teleost” (Phylonix Pharmaceuticals, Inc., priority 2007, dated 2014)
